# Laboratory results published in US9833497B2, “Human originated EGF domain proteins and use of the same” (CHENGDU SOURCEBIO LIMITED-LIABILITY COMPANY, priority 2013, dated 2017).
# Key:
# Assay type in all cases: cell-based
# Klebsiella pneumonia = assay: MIC against Gram-negative bacteria: Klebsiella pneumonia; details: for MIC (μg/mL) K. pneumonia / MIC K. pneumonia: 5×10^5 CFU/mL; for MIC K. pneumonia: two-fold serial dilution
# Summary of the method: (§1)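 First, colonies from LB agar were grown in LB at 37° C, 185 rpm, to McFarland turbidity 0.5, then centrifuged and resuspended in fresh LB. Next, wells received 5×10^5 CFU/mL bacteria plus two-fold serially diluted EGF domain protein (triplicate). Finally, plates were shaken at 37° C and the no-growth concentration taken as MIC.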
# Serratia marcescens = assay: MIC against Gram-negative bacteria: Serratia marcescens; details: for MIC (μg/mL) S. marcescens / MIC S. marcescens: 5×10^5 CFU/mL; for MIC S. marcescens: two-fold serial dilution
# Summary of the method: as §1
# E. coli DH5α = assay: Antibacterial activity: MIC and growth curve against E. coli DH5α in 96-well plate; details: minimal inhibitory concentration against E. coli DH5α; 96-well plate, 5×10^5 CFU/mL, 37° C., judged after 8 h
# Summary of the method: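 MIC taken as lowest protein level with no bacterial growth, tracked by A600 every 30 min during 37 °C, 175 rpm culture. Two-fold protein series 50-12.5 μg/mL final, triplicate wells, against 5×10^5 CFU/mL of LB-washed mid-log cells.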
# Proteus vulgaris = assay: MIC against Gram-negative bacteria: Proteus vulgaris; details: for MIC (μg/mL) P. vulgaris / MIC P. vulgaris: 5×10^5 CFU/mL; for MIC P. vulgaris: two-fold serial dilution
# Summary of the method: as §1
# Citrobacter diversus = assay: MIC against Gram-negative bacteria: Citrobacter diversus; details: for MIC (μg/mL) C. diversus / MIC C. diversus: 5×10^5 CFU/mL; for MIC C. diversus: two-fold serial dilution
# Summary of the method: as §1
# Pseudomonas aeruginosa = assay: MIC against Gram-negative bacteria: Pseudomonas aeruginosa; details: for MIC (μg/mL) P. aeruginosa / MIC P. aeruginosa: 5×10^5 CFU/mL; for MIC P. aeruginosa: two-fold serial dilution
# Summary of the method: as §1
# Aeromonas hydrophila = assay: MIC against Gram-negative bacteria: Aeromonas hydrophila; details: for MIC (μg/mL) A. hydrophila / MIC A. hydrophila: 5×10^5 CFU/mL; for MIC A. hydrophila: two-fold serial dilution
# Summary of the method: as §1
# E. coli BL21 = assay: MIC against Gram-negative bacteria: E. coli BL21; details: for MIC (μg/mL) E. coli BL21 / MIC E. coli BL21: 5×10^5 CFU/mL; for MIC (μg/mL) E. coli BL21 / MIC: E. coli BL21; for MIC E. coli BL21: two-fold serial dilution
# Summary of the method: as §1
# Enterobacter cloacae = assay: MIC against Gram-negative bacteria: Enterobacter cloacae; details: for MIC (μg/mL) E. cloacae / MIC E. cloacae: 5×10^5 CFU/mL; for MIC E. cloacae: two-fold serial dilution
# Summary of the method: as §1
# Moraxella catarrhalis = assay: MIC against Gram-negative bacteria: Moraxella catarrhalis; details: for MIC (μg/mL) M. catarrhalis / MIC M. catarrhalis: 5×10^5 CFU/mL; for MIC M. catarrhalis: two-fold serial dilution
# Summary of the method: as §1
# Proteus mirabilis = assay: MIC against Gram-negative bacteria: Proteus mirabilis; details: for MIC (μg/mL) P. mirabilis / MIC P. mirabilis: 5×10^5 CFU/mL; for MIC P. mirabilis: two-fold serial dilution
# Summary of the method: as §1
# [1] = K. pneumonia, 10 h cultivation at 37° C.
# [2] = S. marcescens, 10 h cultivation at 37° C.
# [3] = P. vulgaris, 10 h cultivation at 37° C.
# [4] = C. diversus, 10 h cultivation at 37° C.
# [5] = P. aeruginosa, 10 h cultivation at 37° C.
# [6] = A. hydrophila, 10 h cultivation at 37° C.
# [7] = E. cloacae, 10 h cultivation at 37° C.
# [8] = M. catarrhalis, 10 h cultivation at 37° C.
# [9] = P. mirabilis, 10 h cultivation at 37° C.
substance,measurement,setting,value
PRT182 (QQPICLSGCHEQNGYCSKPAECLCRPGWQGRLCN; listed as Homo sapiens),MIC (μg/mL) K. pneumonia,Klebsiella pneumonia; [1],12.5 µg/mL
same,MIC (μg/mL) S. marcescens,Serratia marcescens; [2],25 µg/mL
same,MIC,E. coli DH5α,12.5 µg/mL
same,MIC (μg/mL) P. vulgaris,Proteus vulgaris; [3],12.5 µg/mL
same,MIC (μg/mL) C. diversus,Citrobacter diversus; [4],25 µg/mL
same,MIC (μg/mL) P. aeruginosa,Pseudomonas aeruginosa; [5],25 µg/mL
same,MIC (μg/mL) A. hydrophila,Aeromonas hydrophila; [6],12.5 µg/mL
same,MIC (μg/mL) E. coli BL21,E. coli BL21; 10 h cultivation at 37° C.,12.5 µg/mL
same,MIC (μg/mL) E. cloacae,Enterobacter cloacae; [7],25 µg/mL
same,MIC (μg/mL) M. catarrhalis,Moraxella catarrhalis; [8],100 µg/mL
same,MIC (μg/mL) P. mirabilis,Proteus mirabilis; [9],25 µg/mL
PRT975 (LVDWCSRQPCQNGGRCVQTGAYCLCPPGWSGRLCD; listed as Homo sapiens),MIC,Klebsiella pneumonia; [1],12.5 µg/mL
same,MIC,Serratia marcescens; [2],25 µg/mL
same,MIC,E. coli DH5α,25 µg/mL
same,MIC,Proteus vulgaris; [3],12.5 µg/mL
same,MIC,Citrobacter diversus; [4],12.5 µg/mL
same,MIC,Pseudomonas aeruginosa; [5],50 µg/mL
same,MIC,Aeromonas hydrophila; [6],50 µg/mL
same,MIC,E. coli BL21; 10 h cultivation at 37° C.,12.5 µg/mL
same,MIC,Enterobacter cloacae; [7],25 µg/mL
same,MIC,Moraxella catarrhalis; [8],12.5 µg/mL
same,MIC,Proteus mirabilis; [9],50 µg/mL
PRT1155 (QSVSCLNNLCLHQSLCIPDQSFSYSCLCTLGWVGRYCE; listed as Homo sapiens),MIC K. pneumonia,Klebsiella pneumonia; 10 h cultivation at 37° C.,12.5 µg/mL
same,MIC S. marcescens,Serratia marcescens; 10 h cultivation at 37° C.,12.5 µg/mL
same,MIC,E. coli DH5α,25 µg/mL
same,MIC P. vulgaris,Proteus vulgaris; 10 h cultivation at 37° C.,25 µg/mL
same,MIC C. diversus,Citrobacter diversus; 10 h cultivation at 37° C.,12.5 µg/mL
same,MIC P. aeruginosa,Pseudomonas aeruginosa; 10 h cultivation at 37° C.,25 µg/mL
same,MIC A. hydrophila,Aeromonas hydrophila; 10 h cultivation at 37° C.,25 µg/mL
same,MIC E. coli BL21,E. coli BL21; 10 h cultivation at 37° C.,12.5 µg/mL
same,MIC E. cloacae,Enterobacter cloacae; 10 h cultivation at 37° C.,12.5 µg/mL
same,MIC M. catarrhalis,Moraxella catarrhalis; 10 h cultivation at 37° C.,25 µg/mL
same,MIC P. mirabilis,Proteus mirabilis; 10 h cultivation at 37° C.,50 µg/mL
PRT107 (DRCLPSYCEHGGECSQSWDTFSCDCLGTGYTGETC; listed as Homo sapiens),MIC (μg/mL) K. pneumonia,"Klebsiella pneumonia; Klebsiella pneumonia, 96-well plate, 37° C., 10 h",12.5 µg/mL
same,MIC (μg/mL) S. marcescens,"Serratia marcescens; Serratia marcescens, 96-well plate, 37° C., 10 h",12.5 µg/mL
same,MIC,E. coli DH5α,12.5 µg/mL
same,MIC (μg/mL) P. vulgaris,"Proteus vulgaris; Proteus vulgaris, 96-well plate, 37° C., 10 h",50 µg/mL
same,MIC (μg/mL) C. diversus,"Citrobacter diversus; Citrobacter diversus, 96-well plate, 37° C., 10 h",25 µg/mL
same,MIC (μg/mL) P. aeruginosa,"Pseudomonas aeruginosa; Pseudomonas aeruginosa, 96-well plate, 37° C., 10 h",12.5 µg/mL
same,MIC (μg/mL) A. hydrophila,"Aeromonas hydrophila; Aeromonas hydrophila, 96-well plate, 37° C., 10 h",50 µg/mL
same,MIC (μg/mL) E. coli BL21,"E. coli BL21; 96-well plate, 37° C., 10 h",12.5 µg/mL
same,MIC (μg/mL) E. cloacae,"Enterobacter cloacae; Enterobacter cloacae, 96-well plate, 37° C., 10 h",12.5 µg/mL
same,MIC (μg/mL) M. catarrhalis,"Moraxella catarrhalis; Moraxella catarrhalis, 96-well plate, 37° C., 10 h",12.5 µg/mL
same,MIC (μg/mL) P. mirabilis,"Proteus mirabilis; Proteus mirabilis, 96-well plate, 37° C., 10 h",25 µg/mL
PRT1123 (QLTGCQGHTCPLAATCIPIFESGVHSYVCHCPPGTHGPFCG; listed as Homo sapiens),MIC K. pneumonia,Klebsiella pneumonia; 10 h cultivation at 37° C.,12.5 µg/mL
same,MIC S. marcescens,Serratia marcescens; 10 h cultivation at 37° C.,12.5 µg/mL
same,MIC,E. coli DH5α,25 µg/mL
same,MIC P. vulgaris,Proteus vulgaris; 10 h cultivation at 37° C.,25 µg/mL
same,MIC C. diversus,Citrobacter diversus; 10 h cultivation at 37° C.,12.5 µg/mL
same,MIC P. aeruginosa,Pseudomonas aeruginosa; 10 h cultivation at 37° C.,25 µg/mL
same,MIC A. hydrophila,Aeromonas hydrophila; 10 h cultivation at 37° C.,50 µg/mL
same,MIC E. coli BL21,E. coli BL21; 10 h cultivation at 37° C.,50 µg/mL
same,MIC E. cloacae,Enterobacter cloacae; 10 h cultivation at 37° C.,25 µg/mL
same,MIC M. catarrhalis,Moraxella catarrhalis; 10 h cultivation at 37° C.,25 µg/mL
same,MIC P. mirabilis,Proteus mirabilis; 10 h cultivation at 37° C.,50 µg/mL
PRT976 (IGVRLEQLCQAGGQCVDEDSSHYCVCPEGRTGSHCE; listed as Homo sapiens),MIC,Klebsiella pneumonia; [1],12.5 µg/mL
same,MIC,Serratia marcescens; [2],25 µg/mL
same,MIC,E. coli DH5α,50 µg/mL
same,MIC,Proteus vulgaris; [3],25 µg/mL
same,MIC,Citrobacter diversus; [4],25 µg/mL
same,MIC,Pseudomonas aeruginosa; [5],50 µg/mL
same,MIC,Aeromonas hydrophila; [6],12.5 µg/mL
same,MIC,E. coli BL21; 10 h cultivation at 37° C.,12.5 µg/mL
same,MIC,Enterobacter cloacae; [7],50 µg/mL
same,MIC,Moraxella catarrhalis; [8],25 µg/mL
same,MIC,Proteus mirabilis; [9],50 µg/mL
PRT233 (DSRGCARWCPQDSSCVNATACRCNPGFSSFSEIITTPMETCD; listed as Homo sapiens),MIC (μg/mL) K. pneumonia,Klebsiella pneumonia; [1],25 µg/mL
same,MIC (μg/mL) S. marcescens,Serratia marcescens; [2],12.5 µg/mL
same,MIC,E. coli DH5α,12.5 µg/mL
same,MIC (μg/mL) P. vulgaris,Proteus vulgaris; [3],25 µg/mL
same,MIC (μg/mL) C. diversus,Citrobacter diversus; [4],12.5 µg/mL
same,MIC (μg/mL) P. aeruginosa,Pseudomonas aeruginosa; [5],12.5 µg/mL
same,MIC (μg/mL) A. hydrophila,Aeromonas hydrophila; [6],25 µg/mL
same,MIC (μg/mL) E. coli BL21,E. coli BL21; 10 h cultivation at 37° C.,25 µg/mL
same,MIC (μg/mL) E. cloacae,Enterobacter cloacae; [7],12.5 µg/mL
same,MIC (μg/mL) M. catarrhalis,Moraxella catarrhalis; [8],25 µg/mL
same,MIC (μg/mL) P. mirabilis,Proteus mirabilis; [9],100 µg/mL
PRT1189 (ECVPYPGCVHGSCVEPWQCNCETNWGGLLCD; listed as Homo sapiens),MIC K. pneumonia,Klebsiella pneumonia; 10 h cultivation at 37° C.,50 µg/mL
same,MIC S. marcescens,Serratia marcescens; 10 h cultivation at 37° C.,12.5 µg/mL
same,MIC,E. coli DH5α,50 µg/mL
same,MIC P. vulgaris,Proteus vulgaris; 10 h cultivation at 37° C.,50 µg/mL
same,MIC C. diversus,Citrobacter diversus; 10 h cultivation at 37° C.,50 µg/mL
same,MIC P. aeruginosa,Pseudomonas aeruginosa; 10 h cultivation at 37° C.,25 µg/mL
same,MIC A. hydrophila,Aeromonas hydrophila; 10 h cultivation at 37° C.,25 µg/mL
same,MIC E. coli BL21,E. coli BL21; 10 h cultivation at 37° C.,12.5 µg/mL
same,MIC E. cloacae,Enterobacter cloacae; 10 h cultivation at 37° C.,12.5 µg/mL
same,MIC M. catarrhalis,Moraxella catarrhalis; 10 h cultivation at 37° C.,12.5 µg/mL
same,MIC P. mirabilis,Proteus mirabilis; 10 h cultivation at 37° C.,25 µg/mL
